This is an account of results in patent US12187746B2, “C26-linked rapamycin analogs as mTOR inhibitors” (Revolution Medicines, Inc., priority 2018, dated 2025).

In one experiment the test system is P-P70S6K (T389). The experiment can be described thus: Cell based AlphaLISA assay, inhibition of P-P70S6K (T389) in MDA-MB-468 cells. The conditions noted are these: Homo sapiens, 4 h, 0.017-1,000 nM, two to four hours at 37° C., AlphaLisa SureFire Ultra, read-out: pIC50 for Inhibition of mTORC1 and mTORC2 Substrate Phosphorylation, p-P70S6K-(T389) (converted). How it is done: (§1) Cell Based AlphaLISA Assays For Determining IC50 For Inhibition of P-Akt (S473), P-4E-BP1 (T37/46), and P-P70S6K (T389) in MDA-MB-468 Cells
(§2) mTOR Kinase Cellular Assay
(§3) To measure functional activity of mTORC1 and mTORC2 in cells the phosphorylation of 4EBP1 (Thr37/46) and P70S6K (Thr389), and AKT1/2/3 (Ser473) was monitored using AlphaLisa SureFire Ultra Kits (Perkin Elmer). […] Incubations are terminated by removal of the assay buffer and addition of lysis buffer provided with the assay kit. Samples are processed according to the manufacturer's instructions. The Alpha signal from the respective phosphoproteins is measured in duplicate using a microplate reader (Envision, Perkin-Elmer or Spectramax M5, Molecular Devices). Inhibitor concentration response curves are analyzed using normalized IC50 regression curve fitting with control based normalization.
In general terms: Alpha assays give light when donor and acceptor beads are brought close together.

In a further experiment the test system is P-4E-BP1 (T37/46). Put plainly: Cell based AlphaLISA assay, inhibition of P-4E-BP1 (T37/46) in MDA-MB-468 cells. The note with it: Homo sapiens, 4 h, 0.017-1,000 nM, two to four hours at 37° C., AlphaLisa SureFire Ultra, read-out: pIC50 for Inhibition of mTORC1 and mTORC2 Substrate Phosphorylation, p-4E-BP1-(T37/46) (converted). On the procedure:
as §1, §2, §3

For a further experiment, the system named is P-Akt (S473). The experiment can be described thus: Cell based AlphaLISA assay, inhibition of P-Akt (S473) in MDA-MB-468 cells. The note with it: Homo sapiens, 4 h, 0.017-1,000 nM, two to four hours at 37° C., AlphaLisa SureFire Ultra, read-out: pIC50 for Inhibition of mTORC1 and mTORC2 Substrate Phosphorylation, p-AKT1/2/3-(S473) (converted). On the procedure:
as §1, §2, §3

For the molecule `CO[C@H]1C[C@@H]2CC[C@@H](C)[C@@](O)(O2)C(=O)C(=O)N2CCCC[C@H]2C(=O)O[C@H]([C@H](C)C[C@@H]2CC[C@@H](O)[C@H](OC)C2)C[C@@H](O)[C@H](C)/C=C(\C)[C@@H](O)[C@@H](OC)C(=NOCC(=O)N2CCc3nc(N4CCN(c5ncc(C(=O)NCCOCCOCCOCCC(=O)NCCCCn6nc(-c7ccc8oc(N)nc8c7)c7c(N)ncnc76)cn5)CC4)ncc3C2)[C@H](C)C[C@H](C)/C=C/C=C/C=C/1C` [Example 15], the IC50 in the experiment on P-P70S6K (T389) was 1 to 10 nM; in the experiment with P-4E-BP1 (T37/46), 3.16 to 31.6 nM; with P-Akt (S473) it was 31.6 to 1000 nM.

As to `CO[C@H]1C[C@@H]2CC[C@@H](C)[C@@](O)(O2)C(=O)C(=O)N2CCCC[C@H]2C(=O)O[C@H]([C@H](C)C[C@@H]2CC[C@@H](O)[C@H](OC)C2)C[C@@H](O)[C@H](C)/C=C(\C)[C@@H](O)[C@@H](OC)C(=NOCC(=O)N2CCc3nc(N4CCN(c5ncc(C(=O)NCCOCCOCCC(=O)NCCCCn6nc(-c7ccc8oc(N)nc8c7)c7c(N)ncnc76)cn5)CC4)ncc3C2)[C@H](C)C[C@H](C)/C=C/C=C/C=C/1C` [Example 16], the figures for the IC50 with P-P70S6K (T389), with P-4E-BP1 (T37/46) and in the experiment on P-Akt (S473) were 1 to 10 nM, 3.16 to 31.6 nM and greater than 1000 nM, respectively.

Regarding `CO[C@H]1C[C@@H]2CC[C@@H](C)[C@@](O)(O2)C(=O)C(=O)N2CCCC[C@H]2C(=O)O[C@H]([C@H](C)C[C@@H]2CC[C@@H](O)[C@H](OC)C2)C[C@@H](O)[C@H](C)/C=C(\C)[C@@H](O)[C@@H](OC)C(=NOCC(=O)N2CCc3nc(N4CCN(c5ncc(C(=O)NCCOCCC(=O)NCCCCn6nc(-c7ccc8oc(N)nc8c7)c7c(N)ncnc76)cn5)CC4)ncc3C2)[C@H](C)C[C@H](C)/C=C/C=C/C=C/1C` [Example 17], the figures for the IC50 in the experiment with P-P70S6K (T389), in the experiment on P-4E-BP1 (T37/46) and in the experiment on P-Akt (S473) were 1 to 10 nM, 3.16 to 31.6 nM and greater than 1000 nM, respectively.

As for `CO[C@H]1C[C@@H]2CC[C@@H](C)[C@@](O)(O2)C(=O)C(=O)N2CCCC[C@H]2C(=O)O[C@H]([C@H](C)C[C@@H]2CC[C@@H](O)[C@H](OC)C2)C[C@@H](O)[C@H](C)/C=C(\C)[C@@H](O)[C@@H](OC)C(=NOCC(=O)N2CCc3nc(N4CCN(c5ncc(C(=O)NCCOCCC(=O)N6CCc7cc(Cn8nc(-c9ccc%10oc(N)nc%10c9)c9c(N)ncnc98)ccc7C6)cn5)CC4)ncc3C2)[C@H](C)CC(C)/C=C/C=C/C=C/1C` (stereo partly drawn) [Example 18], the IC50 with P-P70S6K (T389) is 1 to 10 nM; in the experiment with P-4E-BP1 (T37/46) it was 3.16 to 31.6 nM; in the experiment on P-Akt (S473), greater than 1000 nM.

Regarding `CO[C@H]1C[C@@H]2CC[C@@H](C)[C@@](O)(O2)C(=O)C(=O)N2CCCC[C@H]2C(=O)O[C@H]([C@H](C)C[C@@H]2CC[C@@H](O)[C@H](OC)C2)C[C@@H](O)[C@H](C)/C=C(\C)[C@@H](O)[C@@H](OC)C(=NOCC(=O)N2CCc3nc(N4CCN(c5ncc(C(=O)NCCOCCOCCOCCC(=O)N6CCc7cc(Cn8nc(-c9cnc%10[nH]ccc%10c9)c9c(N)ncnc98)ccc7C6)cn5)CC4)ncc3C2)[C@H](C)C[C@H](C)/C=C/C=C/C=C/1C` [Example 19], the results for the IC50 in the experiment on P-P70S6K (T389), in the experiment on P-4E-BP1 (T37/46) and in the experiment with P-Akt (S473) were 1 to 10 nM, 3.16 to 31.6 nM and greater than 1000 nM, respectively.

Take `CO[C@H]1C[C@@H]2CC[C@@H](C)[C@@](O)(O2)C(=O)C(=O)N2CCCC[C@H]2C(=O)O[C@H]([C@H](C)C[C@@H]2CC[C@@H](O)[C@H](OC)C2)C[C@@H](O)[C@H](C)/C=C(\C)[C@@H](O)[C@@H](OC)C(=NOCC(=O)NCc2cnc(N3CCN(c4ncc(C(=O)NCCOCCOCCOCCC(=O)NCCCCn5nc(-c6ccc7oc(N)nc7c6)c6c(N)ncnc65)cn4)CC3)nc2)[C@H](C)C[C@H](C)/C=C/C=C/C=C/1C` [Example 20]: the values for the IC50 in the experiment on P-P70S6K (T389), in the experiment on P-4E-BP1 (T37/46) and in the experiment with P-Akt (S473) were 1 to 10 nM, 3.16 to 31.6 nM and greater than 1000 nM, respectively.
